Test results from patent US20100255020A1, “METHOD FOR INDUCING CYTOTOXIC T-CELLS, CYTOTOXIC T-CELL INDUCERS, AND PHARMACEUTICAL COMPOSITIONS AND VACCINES EMPLOYING THEM” (NEC CORPORATION, priority 2007, published 2010).
Where no end group is shown, it is not given here.

Key:
[1] = tested on: peptide-loaded target cells (C1R-A24, RA24, T2); assay: 51Cr release assay of PBMC killing activity against peptide-loaded target cells; type: cell-based, human
Description: Target cells were labeled with ^51Cr and loaded with HLA-binding peptide of interest. 5,000 or 10,000 cells/well of target cells were placed in 96-well U-bottom plate, and then, PBMCs having been stimulated twice in vitro were added thereto as a responder. Cells were incubated at 37° C. for 5 hours and ^51Cr released from the damaged cells during the incubation was measured, and % specific lysis was calculated. As target cells C1R-A24 or RA24 cells were used as a target when reactivity to HLA-A*2402 binding peptides were examined, and T2 cells were used as a target and incubation was carried out for 2 hours after addition of responder cells. Percent specific lysis was calculated as follows. % specific lysis=(test release-spontaneous release)/(total release-spontaneous release)×100.

[2] = tested on: HLA-A*2402 positive cell lines that express WT1 naturally (KAZZ, KCL22, KH88, MEG01); assay: Reactivity of WT1 peptide-specific cell lines toward tumor cells (IFN-γ ELISPOT); type: cell-based, human; conditions: cell lines established from HLA-A*2402 positive patients, FIG. 5
From the text: Reactions of cell lines established from different patients are arranged in a bar graph.

[3] = biological target: T1, HLA-A*0206 molecule (Homo sapiens, UniProt P04439, D140Y/D185E/D98H/E176V/E277Q/F33Y/G131W/G231S/I119V/I121R/I166T/I218V/L300P/L318F/N151K/N90K/P208A/P217A/Q86G/Q94H/R138H/R169H/T345S); assay: Peptide binding to HLA-A*0206 molecule on RA2.6 cells (flow cytometry, Kd); conditions: HLA-A*0206, RA2.6 cells; read-out: Binding assay data (−log Kd) (converted)
T1 construct: expressed in transfected cells; host or cells: RA2.6 (mouse TAP-deficient RMAS cells transfected with pMKITneo bearing HLA-A*0206 cDNA)
Description: The ability of a peptide to bind to an HLA-A*0206 molecule, which is a product of the HLA-A*0206 gene, was measured using RA2.6 cells (cell line newly generated in Kochi University), wherein cDNA of the HLA-A*0206 gene is introduced into RMAS, which is a mouse TAP (transporter associated with antigen processing)-deficient cell line.
RA2.6 cells were first cultured overnight at 26° C., during this incubation HLA-A*0206 molecules devoid of bound peptide accumulated. Serial dilutions of peptide were added to these cells and peptide binding was carried out at room temperature for 30 minutes.
Subsequently, culture was carried out at 37° C. for 3.5 hours, during this incubation empty HLA-A*0206 molecules to which no peptide was bound were denatured, and the tertiary structure was lost.
The cells were stained by adding thereto fluorescently-labeled monoclonal antibody BB7.2, which specifically recognizes the peptide-bound HLA-A*0206 molecule, and incubating on ice for 20 minutes.
Subsequently, the amount of fluorescence per cell was measured using a flow cytometer, and a dissociation constant Kd value was calculated by a method published in the literature (Udaka et al., Immunogenetics, 51, 816-828, 2000).

[4] = biological target: HLA-A*0201 molecule (Homo sapiens, UniProt P04439, D140Y/D185E/D98H/E176V/E277Q/G131W/G231S/I119V/I121R/I166T/I218V/L300P/L318F/N151K/N90K/P208A/P217A/Q86G/Q94H/R138H/R169H/T345S); assay: Peptide binding to HLA-A*0201 molecule on JY cells (flow cytometry, Kd); conditions: HLA-A*0201, JY cells; read-out: Binding assay data (−log Kd) (converted)
Description: The ability of a peptide to bind to an HLA-A*0201 molecule, which is a product of the HLA-A*0201 gene, was measured using strain JY cells expressing the HLA-A*0201 molecule.
JY cells were first exposed to acidic conditions at a pH of 3.8 for 30 seconds, thus dissociating and removing a β2m light chain and an endogenous peptide, which were noncovalently associated with the HLA-A* 0201 molecule. After neutralization, a reconstitution experiment was carried out.
The above-mentioned JY cells and the purified […] were added to serial dilutions of peptide for which the binding ability needs to be measured, and incubation was carried out on ice for 4 hours. HLA-A*0201 molecules that had reassociated up to this time point were stained using the fluorescently-labeled monoclonal antibody BB7.2, a conformation dependent monoclonal Ab specific for an assembled form of HLA-A*0201 molecule.
Subsequently, the amount of fluorescence per cell was measured using a flow cytometer and a dissociation constant Kd value was calculated by a method published in the literature (Udaka et al., Immunogenetics, 51, 816-828, 2000).

[5] = biological target: HLA-A*2402 molecule (Homo sapiens, UniProt P04439, D101N/D140Y/D185E/E176V/E190D/F33S/G103R/G107R/I119L/I121M/I306V/K335N/L105A/L180Q/L300P/N151K/N90K/Q86E/Q94H/R106L/R138H/R89G/T104I/T345S/V100E/W191G/Y123F); assay: Peptide binding to HLA-A*2402 molecule on C1R-A24 cells (flow cytometry, Kd); conditions: HLA-A*2402, C1R-A24 cells; read-out: Binding assay data (−log Kd) (converted)
Description: The ability of a peptide to bind to an HLA-A*2402 molecule, which is a product of the HLA-A*2402 gene, was measured using C1R-A24 cells expressing the HLA-A*2402 molecule (cells generated by Professor Masafumi Takiguchi, Kumamoto University being supplied with permission by Associate Professor Masaki Yasukawa, Ehime University).
C1R-A24 cells were first exposed to acidic conditions at a pH of 3.3 for 30 seconds, thus dissociating and removing a β2m light chain, which is associated with HLA class I molecules in common, and an endogenous peptide originally bound to the HLA-A*2402 molecule. After neutralization, purified β2m was added to C1R-A24 cells, the obtained product was added to serial dilutions of a peptide, and incubated on ice for 4 hours. […]
Subsequently, the number of MHC-pep complexes per C1R-A24 cell (proportional to the intensity of fluorescence of the above-mentioned fluorescent antibody) was quantitatively measured using a FACScan fluorescence-activated flow cytometer (Becton Dickinson Biosciences). A dissociation constant Kd value between the HLA-A*2402 molecule and the peptide was calculated from the average intensity of fluorescence per cell by a method published in the literature (Udaka et al., Immunogenetics, 51, 816-828, 2000).

[6] = tested on: malignant tumors; assay: Peptide immunotherapy of patients, tumor response by RECIST criteria (CT/MRI); type: in vivo, human; parameters: key to RECIST, single lung metastasis / RECIST, total sum of longest diameters of 10 metastatic target lesions / RECIST, pubic bone metastatic tumor / RECIST determination 3 months after starting W10 peptide therapy: CR: all target lesions have disappeared; PR: the sum of the longest diameters of the target lesions decreases by at least 30%; PD: the sum of the longest diameters of the target lesions increases by at least 20%; SD: the change of tumr size is between PR or PD
Description: Among 18 patients, 3 people are illustrated in the style of case reports. […] The mixture was prepared immediately prior to administration. When W10 peptide was administered without petussis vaccine in the safety test, W10 peptide solution was divided into 4 equal portions and injected intradermally at 4 locations in the same manner. A method to measure the diameter of a tumor and a method to analyze peptide-specific T-cells using an HLA-A24 tetramer by flow cytometry are described below.
The international RECIST criteria referred to here is an evaluation standard described in Theresse, P. et al., J Natl Cancer Inst. 2000, 92, 205-216. When there is confirmation by helical CT or MRI that all target lesions have disappeared this is defined as CR (complete response), when the sum of the longest diameters of the target lesions decreases by at least 30% this is defined as PR (partial response), when the sum of the longest diameters of the target lesions increases by at least 20% this is defined as PD (progressive disease), and when the change of tumr size is between PR or PD this is defined as SD (stable disease). However, regardless of the presence or absence of a change in the target lesions, when even one new lesion appears this is defined as PD.
Based on the above-mentioned international RECIST criteria, which is used for evaluation of anticancer drugs, all measurable tumors were selected as target tumors, and change in the SLD of the tumors over the course of the therapy was monitored. In addition, number of all the tumors was counted, regardless of the size of a tumor, every time diagnostic imaging was carried out in order to lookout for new lesions. Diagnostic imaging was carried out in principle once a month by helical CT or MRI. If even one new metastasis appeared, regardless of the change in the primary lesion, it was judged as PD.
Clinical responses were evaluated according to the aforementioned international RECIST criteria for 18 patients who had been treated by immunotherapy using W10+Wc for at least 3 months and one week. Eight cased out of 18 patients were judged as SD, 10 cased were PD. […] In reports on peptide immunotherapy so far, the tumor control rate was limited to a few % up to ten or so % worldwide (Reference Documents 1 to 4). Compared with these already reported cases, this is a good reaction.

[7] = HLA-A*2402 binding peptides, FIG. 9a and b

Kd [3] | Kd [4] | Kd [5] | Sequence | Peptide-reactive cytolytic cells in PBMCs of patients ([1]; HLA-A*0201 binding peptides, T2 targets) | Peptide-reactive cytolytic cells in PBMCs of patients [1, 7] | Reactivity of peptide-dependent cell line toward WT1-expressing cell lines compared with C1R-A24 [2] | Effect of immunotherapy on tumor ([6]; patient KB07-005, prostate cancer, 235Y from December 2006) | Primary tumor by MRI ([6]; patient KB07-006, 3 mg 235Y emulsified with Montanide, weekly intradermal, 4th week) | RECIST, single lung metastasis ([6]; patient KB07-006, 235Y immunization for 10 months) | Primary tumor on continued immunization ([6]; patient KB07-006, 235Y weekly, no recurrence at three and a half years)
0.245 µM | 0.389 µM | 0.0214 µM | RVPGVAPTL [W302] | contain cytolytic cells that recognize | cytolytic cells include those reactive | tends to be higher although differences are small |  |  |  | 
0.331 µM |  |  | GVFRGIQDV [W292] |  |  |  |  |  |  | 
 |  |  | CYTWNQMNL (listed as Homo sapiens) [235Y, reference compound] |  | cytolytic cells include those reactive | tends to be higher although differences are small | no effect | apparent reduction of the primary tumor | SD | disappeared
